Measured values: patent US7910692B2, “Immunogenic peptides and methods of use” (The United States of America as represented by the …, priority 2006, dated 2011)
Values belong to the substance of their own block, whether it stands above or below them.

Columns and labels:
HLA-A2 molecules = biological target: T1, HLA-A2 molecules (Homo sapiens, UniProt P04439, D140Y/D185E/D98H/E176V/E277Q/G131W/G231S/I119V/I121R/I166T/I218V/L300P/L318F/N151K/N90K/P208A/P217A/Q86G/Q94H/R138H/R169H/T345S); test: Peptide binding to HLA-A2: upregulation of HLA-A2 expression on T2 cells, flow cytometry; conditions: for T2 binding, mean fluorescence intensity: T2 cells; for binding to HLA-A2 compared with native peptides: all concentrations, 0 to 25 μg/ml (FIG. 1A)
T1 construct: expressed in transfected cells; host or cells: T2 cells (provided by Dr. Peter Cresswell)
Method: The primary amino acid sequence of human PAGE4 was analyzed for consensus motifs for novel HLA-A2 binding peptides. Two 10-mer peptides (P16-25 designated as P16 and P59-68 designated as P59) and one 9-mer peptide (P84-92 designated as P84) were identified and evaluated (Table 1). […] For this reason, five different analogues of native peptides were synthesized and were investigated for their binding ability to HLA-A2-positive T2 cells along with the native P16, P59 and P84 peptides. A MUC-1 peptide and a CEA HLA-A3 binding peptide (CAP-7) were used as a positive and negative control, respectively (Tsang et al., J Natl Cancer Inst 1995; 87:982-90).

T-B-P16-1 cells = test: CD107a mobilization assay; format: cell-based, human; conditions: T-B-P16-1 cells with T2 cells pulsed with 12.5 μg/ml peptide; 5 hours (FIG. 3)
Method: The expression of CD107a on the cell surface of CD8+ T cells and correlation with cytotoxic activity by PAGE4-specific T-cell line (T-B-P16-1) against P16-1 or P16 pulsed T2 cells. 0.5×10^6 effector cells/ml were incubated (FIG. 3a) alone, (FIG. 3b) with T2 cells without peptide, (FIG. 3c) with T2 cells pulsed with 12.5 μg/ml of P16 peptide, or (FIG. 3d) with T2 cells pulsed with 12.5 μg/ml of P16-1 peptide. Results are expressed in % of CD107a positive and CD8 positive cells. Numbers of the upper right are % of specific lysis±SD.
CD107a mobilization assay: The CD107a mobilization assay was performed as previously described (Rubio et al., Nat Med 2003; 9:1377-82). […] Samples were then fixed and the expression of CD107a on the cell surface of CD8^+ T cells was analyzed by flow cytometry.
In order to determine CTL degranulation which is a requisite process of perforin-granzyme mediated killing by activated CD8+ T cells, CD107a mobilization to the cell surface of CD8+ T cells was examined following activation with P16 or P16-1 peptides in addition to CTL assays. T-B-P16-1 cells were incubated with P16 native or P16-1 agonist peptide-pulsed T2 cells for 5 hours in the presence of monensin and analyzed for CD107a mobilization by flow cytometric analysis (FIG. 3). […]

T2 cells = test: 111In release assay: lysis of peptide-pulsed T2 targets by PAGE4-specific T-cell lines; format: cell-based; conditions: for % lysis (±SD) by T-A-P16 / % lysis (±SD) by T-B-P16-1: 16-hour 111In release, peptide 12.5 μg/ml, IVS4
Method: Cytotoxic Assay: Cytotoxicity assays were used as described previously (Tsange et al., J Natl Cancer Inst 1995; 87:982-90). A 6-hour or 16-hour ^111In release assay was used to determine T-cell mediated killing. Target cells were labeled with ^111In oxine (Amersham Health, Silver Spring, Md.) for 20 min at room temperature, and used at 3×10^3 cells per well, in 96-well rounded-bottom culture plates. ^111In released was measured by gamma counting. Spontaneous release was determined by incubating the target cells with medium alone, and complete lysis by incubating the target cells with 2.5% Triton X-100. Specific lysis (%)=[(observed release−spontaneous release)/(complete release−spontaneous release)]×100.
To examine the ability of the P16 and P16-1 peptides to activate the PAGE4-specific T-cells, T-A-P16 cells were subsequently analyzed for the ability to lyse peptide-pulsed targets.

LNCaP cells = test: Cold target inhibition assay; format: cell-based, human; conditions: peptide-pulsed (12.5 μg/ml) unlabeled T2 cells; LNCaP:T2 1:10; E:T 15:1 (FIG. 5A)
Method: For the results presented in FIG. 5A, ^111In labeled LNCaP cells and unlabeled T2 cells were used at a ratio of 1:10. T2 cells were incubated with or without P16-1 peptide (12.5 μg/ml) in serum-free medium for 2 hours at 37° C. prior to the addition of the T-A-P16-1 cells. For the results presented in FIG. 5B, anti-HLA-A2 antibody (10 μg/ml and 50 μg/ml) or 110 μg/ml of control IgG antibody were added to ^111In labeled LNCaP cells for 1 hour at 37° C. prior to the addition of the T-A-P16-1 cells. Results are expressed in percent specific lysis at effector-to-target ratio of 15:1. Bars=SD. Statistically significant (P<0.05, two tailed t test).
To confirm the specificity and HLA-A2 restriction of CTL cytolysis, LNCaP cells were used as target in a cold target inhibition assay. […] Moreover, to determine whether the lysis was HLA-A2 restricted, antibody blocking experiments were carried out.

T-A-P16 cells = test: Cytokine production by T-A-P16 cells stimulated with native and agonist P16 peptides (FIG. 2); format: cell-based, human; conditions: vs native P16 or P16-2 peptide; 12.5 ul/ml; effector-to-APC 1:3; 24-hour supernatants (FIG. 2)
Method: FIG. 2 is a set for bar graphs illustrating the ability of autologous B cells pulsed with native and agonist P16 peptides to induce IFN-γ, Lymphotactin, Granzyme B, TNF-α and IL-2 production by T cell line derived from the native peptide (T-A-P16). T-A-P16 cells were used as effectors at in vitro stimulation (IVS-4). T cells were stimulated with irradiated autologous B cells pulsed with different PAGE4 analogues at a concentration of 12.5 ul/ml, and an effector-to-APC ratio of 1:3. Twenty-four-hour culture supernatants were collected and screened for the secretion of IFN-γ, Lymphotactin, Granzyme B, TNF-α and IL-2 using ELISA assay.
Detection of Cytokines: Supernatants of T cells stimulated for […] with peptide-pulsed autologous EBV-transformed B cells, in IL-2-free medium at various peptide concentrations, were screened for secretion of IFN-γ using an ELISA kit (BioSource International, Camarillo, Calif.) and lymphotactin using an ELISA assay (36). Granzyme B, TNF-α and IL-2 were determined by using a Cytokines and Chemokines-Multiplex Kit (Meso Scale Discovery, Geitherburg, Md.). The results were expressed in pg/ml.
Studies were then undertaken to examine the ability of the P16, P16-1, P16-2 peptides to activate the T-A-P16 cells, which were generated with the P16 native peptide. […] The P16-1 agonist was thus chosen for further study.

peptide-HLA-A2 complexes = biological target: T2, peptide-HLA-A2 complexes (Homo sapiens, UniProt P04439, D140Y/D185E/D98H/E176V/E277Q/G131W/G231S/I119V/I121R/I166T/I218V/L300P/L318F/N151K/N90K/P208A/P217A/Q86G/Q94H/R138H/R169H/T345S); test: Stability of peptide-HLA-A2 complexes on T2 cells after brefeldin A block; format: binding; conditions: 8-hour observation period; 12.5 μg/ml (FIG. 1B)
T2 construct: expressed in transfected cells; host or cells: T2 cells (provided by Dr. Peter Cresswell)
Method: FIGS. 1A and 1B are line graphs showing the binding of native PAGE4 peptides and their agonist peptides to HLA-A2 molecules. Peptides were analyzed for binding to T2 cell line as described in Example 1. For the results presented in FIG. 1A, peptides were used at concentrations of 0 to 25 μg/ml. P16 peptide (∘), P16-1 (●), P16-2 (▴), P84 (□) and P84-1 (▪), positive control (MUC-1 peptide) (+) and negative control (HLA-A3 binding peptide) (X). Results are expressed in mean fluorescence intensity (MFI). FIG. 1B presents a comparison of the stability of HLA-A2 peptide complexes of PAGE4 native and agonist peptides. T2 cells were incubated overnight with P16 peptide (∘), P16-1 (●), P16-2 (▴), P84 (□) and P84-1 (▪) peptides at a concentration of 12.5 μg/ml and then were washed free of unbound peptide and incubated with brefeldin A to block delivery of new class 1 molecules to the cell surface. At the indicated times, cells were stained for the presence of surface peptide-HLA-A2 complexes. Results are expressed in relative percentage of binding compared with 100% at time 0.
The analogues of P16 were designated P16-1 and P16-2, and the analogue of P84 was designated as P84-1. These peptides bound to HLA-A2 at higher levels than their native peptides. Studies were then conducted to examine the ability of these peptides to bind HLA-A2 at various concentrations. […] Studies were then undertaken to examine the stability of the peptide-MHC complex for the peptides P16, P84, P16-1, P16-2 and P84-1. Each peptide was incubated with T2 cells overnight, the unbound peptides were washed off, and the cells were then incubated with Brefeldin A to block delivery of new class I molecules to the cell surface. Cells were analyzed for the presence of peptide-HLA-A2 complexes at various time points.

T2 binding, mean fluorescence intensity (HLA-A2 molecules; peptide 25 μg/ml): 260 MFI
Substance: HLFGYSWYK [CAP-7 peptide, reference compound]

binding of native peptides to HLA-A2 molecules in the T2 assay (HLA-A2 molecules; T2 assay): bound to HLA-A2 molecules
T2 binding, mean fluorescence intensity (HLA-A2 molecules; peptide 25 μg/ml): 270 MFI
T2 binding, fold increase as compared with the negative control (HLA-A2 molecules; peptide 25 μg/ml, vs CAP-7 negative control): 1.04 fold
Substance: KTPPNPKHA (XXPPNPKHX; (16)..(16) Xaa can be Gln or Tyr; listed as Homo sapiens) [Peptide P84]

stability of peptide-HLA-A2 complexes compared with native peptide complexes (peptide-HLA-A2 complexes): greater
binding to HLA-A2 compared with native peptides (HLA-A2 molecules): higher levels
Substance: P16-1: agonist analogue of P16; amino acids 16 to 25 of SEQ ID NO: 1, X1 glutamine, X2 leucine (QLAPDVVAFV; (16)..(16) Xaa can be Gln or Tyr; listed as Homo sapiens) [Peptide P16-1]
CD8+ T cells expressing surface CD107a compared with P16 native peptide (T-B-P16-1 cells): Higher number
% lysis (±SD) by T-A-P16 (T2 cells; effector T-A-P16, E:T 15:1): 16.7 (0.9) %
% lysis (±SD) by T-A-P16 (T2 cells; effector T-A-P16, E:T 30:1): 20.4 (1.9) %
lysis of peptide-pulsed T2 cells by T-A-P16 compared with P16-pulsed T2 cells (T2 cells; effector T-A-P16, two E:T ratios): higher
% lysis (±SD) by T-B-P16-1 (T2 cells; effector T-B-P16-1, E:T 15:1): 25.8 (0.6) %
% lysis (±SD) by T-B-P16-1 (T2 cells; effector T-B-P16-1, E:T 30:1): 34.7 (0.04) %
lysis of peptide-pulsed T2 cells by T-B-P16-1 compared with P16-pulsed T2 cells (T2 cells; effector T-B-P16-1, two E:T ratios): to a greater extent
decrease in CTL activity of T-A-P16-1 cells against labeled LNCaP cells (LNCaP cells): 79.6%
IFN-γ, lymphotactin, Granzyme B, TNF-α and IL-2 production by T-A-P16 cells (T-A-P16 cells): higher levels

stability of peptide-HLA-A2 complexes compared with native peptide complexes (peptide-HLA-A2 complexes): more stable
binding to HLA-A2 compared with native peptides (HLA-A2 molecules): higher levels
Substance: P16-2: analogue of P16; amino acids 16 to 25 of SEQ ID NO: 1, X1 tyrosine, X2 leucine (YLAPDVVAFV; (16)..(16) Xaa can be Gln or Tyr; listed as Homo sapiens) [Peptide P16-2]

stability of peptide-HLA-A2 complexes compared with native peptide complexes (peptide-HLA-A2 complexes): more stable
binding to HLA-A2 compared with native peptides (HLA-A2 molecules): higher levels
Substance: P84-1: analogue of P84; amino acids 84-92 of SEQ ID NO: 1, X6 tyrosine, X7 leucine, X8 valine (YLPPNPKHV; (16)..(16) Xaa can be Gln or Tyr; listed as Homo sapiens) [Peptide P84-1]
